Experimental data as given in patent publication US20040175782A1, “Biotransformation of compounds using non-prokaryotic microalgae” (TETHYS RESEARCH LLC, priority 2003, published 2004).

What was measured:
Chloromonas rosae = test: final biotransformation culture, 7 days in the presence of precursor; assay type: cell-based; conditions: 100 μg/ml precursor, starting cell concentration 1.75 × 10^5
Experimental: (§1) Table V below lists each microalgae in the final panel, its starting cell concentration, the concentration of precursor compound in the growth medium, the starting and final cell count, and the method of separation of the resulting biomass from the culture supernatant. The final panel of algal strains were grown for 7 days under the conditions listed in Table III above in the presence of the precursor compound prior to separation of the resulting biomass from the culture supernatant.

Moromastix sp. = test: as above; assay type: cell-based; conditions: 200 μg/ml precursor, starting cell concentration 6.16 × 10^5
Experimental: as §1

Cryptocrysis rubens = test: as above; assay type: cell-based; conditions: 200 μg/ml precursor, starting cell concentration not determined
Experimental: as §1

Botrydium = test: growth (cell counts) of microalgae in the presence of precursor compound; assay type: cell-based; conditions: 100 μg/ml, cell counts on days 0, 2, 4 and 7, relative to growth controls
Experimental: (§2) Three 15 ml cultures of each of the microalgae listed in Table III above were grown in 30 ml flasks. Growth control cultures contained algae and medium only. Growth control cultures in the presence of solvent contained algae, medium, and 0.06 ml of methanol, the solvent chosen for the precursor compound. Experimental cultures contained algae, medium, and 0.06 ml of a 25 mg/ml solution of (S)-(−)-3-(Benzyloxycarbonyl)-4-oxazolidinecarboxylic acid (precursor compound) dissolved in methanol, yielding a final concentration of 100 μg/ml. Cell counts were performed using a haemocytometer on days 0, 2, 4 and 7.

Chlamydomonas = test: as above; assay type: cell-based, Chlamydomonas reinhardtii; conditions: 100 μg/ml, cell counts on days 0, 2, 4 and 7, relative to growth controls
Experimental: as §2

Platymonas = test: as above; assay type: cell-based, Platymonas sp.; conditions: 100 μg/ml, cell counts on days 0, 2, 4 and 7, relative to growth controls
Experimental: as §2

Phaeodactylum = test: as above; assay type: cell-based, Phaeodactylum tricornutum; conditions: 100 μg/ml, cell counts on days 0, 2, 4 and 7, relative to growth controls
Experimental: as §2
as §2, with “VIII” for “III”, “Precursor 2.” for “the precursor compound.”, “tert-butyl[S-(R*-R*)]-(−)-(1-oxiranyl-2-phenylethylcarbamate)” for “(S)-(−)-3-(Benzyloxycarbonyl)-4-oxazolidinecarboxylic acid”, “concentration in the culture medium” for “concentration”

Chlorella = test: as above; assay type: cell-based, Chlorella minutisima; conditions: 100 μg/ml, cell counts on days 0, 2, 4 and 7, relative to growth controls
Experimental: as §2
as §2, with “VIII” for “III”, “Precursor 2.” for “the precursor compound.”, “tert-butyl[S-(R*-R*)]-(−)-(1-oxiranyl-2-phenylethylcarbamate)” for “(S)-(−)-3-(Benzyloxycarbonyl)-4-oxazolidinecarboxylic acid”, “concentration in the culture medium” for “concentration”

Olithodiscus sp. = test: final biotransformation culture, 7 days in the presence of precursor; assay type: cell-based; conditions: 50 μg/ml precursor, starting cell concentration 1.09 × 10^6
Experimental: (§3) Table V below lists each microalgae in the final panel, its starting cell concentration, the concentration of precursor compound in the growth medium, the starting and final cell count, and the method of separation of the resulting biomass from the culture supernatant. The final panel of algal strains were grown for 7 days under the conditions listed in Table III above in the presence of the precursor compound prior to separation of the resulting biomass from the culture supernatant. Cell counts were not determined in every case for the strains listed in Table V. Table X below lists each microalgae in the final panel, its starting cell concentration, the concentration of precursor compound in the growth medium, the starting and final cell count, and the method of separation of the resulting biomass from the culture supernatant. The final panel of algal strains was grown for 7 days under the conditions listed in Table VIII above in the presence of Precursor 2 prior to separation of the resulting biomass from the culture supernatant.

Scenedesmus obliquus = test: as above; assay type: cell-based; conditions: 200 μg/ml precursor, starting cell concentration 6.38 × 10^6
Experimental: as §3

Chlorella minutisima = test: as above; assay type: cell-based; conditions: 100 μg/ml precursor, starting cell concentration 1.52 × 10^6
Experimental: as §3

[1] = tested on: Chlamydomonas reinhardtii; test: as above; assay type: cell-based; conditions: 200 μg/ml precursor, starting cell concentration 2.2 × 10^7
Experimental: as §3

Cryptomonas ovata = test: as above; assay type: cell-based; conditions: 200 μg/ml precursor, starting cell concentration not determined
Experimental: as §3

Euglena gracilis = test: as above; assay type: cell-based; conditions: 100 μg/ml precursor, starting cell concentration not determined
Experimental: as §3

[2] = tested on: Phaeodactylum tricornutum; test: as above; assay type: cell-based; conditions: 200 μg/ml precursor, starting cell concentration 1.18 × 10^6
Experimental: as §3

In the case of `O=C(O)[C@@H]1COCN1C(=O)OCc1ccccc1` [precursor compound, (S)-(−)-3-(Benzyloxycarbonyl)-4-oxazolidinecarboxylic acid], the “Final Cell Concentration” value (Chloromonas rosae) is reported as 1.13 × 10^6, the “Final Cell Concentration” value (Moromastix sp.) is reported as 7.4 × 10^5 and the “Final Cell Concentration” value (Cryptocrysis rubens) is reported as 3.09 × 10^6. The “effect on growth of Botrydium” value (Botrydium) was “increased growth relative to the growth controls”, the “effect on growth of Chlamydomonas” value (Chlamydomonas) was “moderate, but not severe decreases in growth relative to the growth controls” and the “effect on growth of Platymonas” value (Platymonas) was “causing cell death”. For the same molecule, the “effect on growth of Phaeodactylum” value (Phaeodactylum) was “moderate, but not severe decreases in growth relative to the growth controls”, the “effect on growth of Chlorella” value (Chlorella) was “increased growth relative to the growth controls” and the “effect on growth of Chlorella” value (Chlorella; listed as Precursor 2 used in Example 1) was “negatively affected”. For the same molecule, the “Final Cell Concentration” value (Olithodiscus sp.) was 1.3 × 10^6, the “Final Cell Concentration” value (Scenedesmus obliquus) was 2.12 × 10^7 and the “Final Cell Concentration” value (Chlorella minutisima) was 1.08 × 10^7. For the same molecule, the “Final Cell Concentration” value [1] was 1.58 × 10^9, the “Final Cell Concentration” value (Cryptomonas ovata) was 1.3 × 10^5 and the “Final Cell Concentration” value (Euglena gracilis) was 6.6 × 10^5. For the same molecule, the “Final Cell Concentration” value [2] was 4.08 × 10^6.
